Patent publication US20240158446A1, “CYCLIC COMPOUND HAVING SELECTIVE INHIBITORY ACTION ON KRAS OVER HRAS AND NRAS” (CHUGAI SEIYAKU KABUSHIKI KAISHA, priority 2021, published 2024)
Like-named read-outs stand apart in the source and are kept apart here. Where a SMILES comes first, the peptide text is derived from it. Bridges are numbered along the chain shown (N, C = ends). [ ]: non-standard residue; d: D form. The star is where a group is joined. hPhe(3-Cl-4-CF3) = N[C@@H](CCc1ccc(C(F)(F)F)c(Cl)c1)C(=O)O; NPrPhe(4-CF3) = CCCN[C@@H](Cc1ccc(C(F)(F)F)cc1)C(=O)O; NMeGly(cPent) = CN[C@H](C(=O)O)C1CCCC1; Pro(4,4-F2) = O=C(O)[C@@H]1CC(F)(F)CN1; Hyp = O=C(O)[C@@H]1C[C@@H](O)CN1; NMeD = CN[C@@H](CC(=O)O)C(=O)O; NMeL = CN[C@@H](CC(C)C)C(=O)O; Morpholide = C1CN(*)CCO1; Ac5c = NC1(C(=O)O)CCCC1; NEtG = CCNCC(=O)O; Sar = CNCC(=O)O

Key:
[1] = molecular target: GDP-bound HRAS wild-type protein (Homo sapiens, UniProt P01112); assay: Binding to HRAS by surface plasmon resonance (SPR), Single Cycle Kinetics; settings: for HRAS/KRAS (ratio of KD value for HRAS to KD value for KRAS) / HRAS/KRAS (ratio of KD value with respect to HRAS to KD value with respect to KRAS): SPR, GDP-bound HRAS wild-type protein vs GDP-bound KRAS wild-type protein
Sequence of GDP-bound HRAS wild-type protein (P01112 whole entry): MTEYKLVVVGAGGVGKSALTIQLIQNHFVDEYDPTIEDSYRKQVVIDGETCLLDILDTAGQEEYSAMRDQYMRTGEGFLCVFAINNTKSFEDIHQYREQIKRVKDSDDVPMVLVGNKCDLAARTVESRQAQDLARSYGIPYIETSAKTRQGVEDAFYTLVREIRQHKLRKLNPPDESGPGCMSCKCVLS

[2] = molecular target: GDP-bound NRAS wild-type protein (Homo sapiens, UniProt P01111); assay: Binding to NRAS by surface plasmon resonance (SPR), Single Cycle Kinetics; settings: for NRAS/KRAS (ratio of KD value for NRAS to KD value for KRAS) / NRAS/KRAS (ratio of KD value with respect to NRAS to KD value with respect to KRAS): SPR, GDP-bound NRAS wild-type protein vs GDP-bound KRAS wild-type protein
Sequence of GDP-bound NRAS wild-type protein (P01111 whole entry): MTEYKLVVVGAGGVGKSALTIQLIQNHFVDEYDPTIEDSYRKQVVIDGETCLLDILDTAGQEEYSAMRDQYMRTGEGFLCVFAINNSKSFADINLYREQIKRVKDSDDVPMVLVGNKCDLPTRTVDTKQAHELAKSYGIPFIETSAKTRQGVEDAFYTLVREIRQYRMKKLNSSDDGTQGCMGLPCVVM

[3] = molecular target: GDP-bound KRAS wild-type protein (Homo sapiens, UniProt P01116); assay: Binding to KRAS by surface plasmon resonance (SPR), Single Cycle Kinetics; settings: GDP-bound KRAS wild-type protein, read-out: KRAS KD
Sequence of GDP-bound KRAS wild-type protein (P01116 whole entry): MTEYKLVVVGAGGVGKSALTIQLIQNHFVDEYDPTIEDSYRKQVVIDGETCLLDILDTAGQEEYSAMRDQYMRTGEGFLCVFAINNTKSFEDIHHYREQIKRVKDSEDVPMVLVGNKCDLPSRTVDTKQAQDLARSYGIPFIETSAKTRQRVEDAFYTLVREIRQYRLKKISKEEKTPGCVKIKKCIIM

[4] = SPR Single Cycle Kinetics, 1:1 binding model

SMILES	Kd ([3]; SPR, Single Cycle Kinetics)	Kd [3, 4]	HRAS/KRAS (ratio of KD value for HRAS to KD value for KRAS) [1]	NRAS/KRAS (ratio of KD value for NRAS to KD value for KRAS) [2]	HRAS/KRAS (ratio of KD value with respect to HRAS to KD value with respect to KRAS) [1]	NRAS/KRAS (ratio of KD value with respect to NRAS to KD value with respect to KRAS) [2]	HRAS/KRAS (ratio of KD value with respect to GDP-bound HRAS wild-type protein to KD value with respect to KRAS) ([1]; SPR KD ratio HRAS/KRAS, class symbols)	NRAS/KRAS (ratio of KD value with respect to GDP-bound NRAS wild-type protein to KD value with respect to KRAS) ([2]; SPR KD ratio NRAS/KRAS, class symbols)
CC[C@H](C)[C@@H]1NC(=O)[C@H](CC(C)C)NC(=O)C[C@@H](C(=O)N2CCOCC2)N(C)C(=O)[C@H](C2CCCC2)N(C)C(=O)C2(CCCC2)NC(=O)[C@@H]2CCCN2C(=O)[C@H](CCc2cc(F)c(C(F)(F)F)c(F)c2)NC(=O)CN(C)C(=O)[C@H](Cc2ccc(C(F)(F)F)cc2)N2CCCCC[C@@H](C2=O)N(C)C(=O)CN(C)C1=O [PP0516]	–	10 nM	–	–	B (a compound having 3 or more and less than 10 is denoted as B)	B (a compound having 3 or more and less than 10 is denoted as B)	–	–
CCCN1C(=O)CN(C)C(=O)CN(C)C(=O)[C@H]([C@@H](C)CC)NC(=O)[C@H](CC(C)C)N(C)C(=O)C[C@@H](C(=O)N2CCOCC2)N(C)C(=O)[C@H](C2CCCC2)N(C)C(=O)C2(CCCC2)NC(=O)[C@@H]2C[C@@H](O)CN2C(=O)[C@H](CCc2ccc(C(F)(F)F)c(Cl)c2)NC(=O)CN(C)C(=O)[C@@H]1Cc1ccc(C(F)(F)F)cc1 [PP0241] ([NMeL]I[Sar][Sar][NPrPhe(4-CF3)][Sar][hPhe(3-Cl-4-CF3)][Hyp][Ac5c][NMeGly(cPent)][NMeD]-Morpholide; lactam N-11)	–	0.052 nM	C (A compound having a KD ratio of 0.1 or more and less than 3 is denoted as C)	B (a compound having 3 or more and less than 10 is denoted as B)	–	–	–	–
CCCN1C(=O)CN(C)C(=O)CN(CC)C(=O)[C@H]([C@@H](C)CC)NC(=O)[C@H](CC(C)C)N(C)C(=O)C[C@@H](C(=O)N(C)C)NC(=O)[C@H](C2CCCC2)N(C)C(=O)C2(CCCC2)NC(=O)[C@@H]2CC(F)(F)CN2C(=O)[C@H](CCc2ccc(C(F)(F)F)c(Cl)c2)NC(=O)CN(C)C(=O)[C@@H]1Cc1ccc(C(F)(F)F)cc1 [PP0369] ([NMeL]I[NEtG][Sar][NPrPhe(4-CF3)][Sar][hPhe(3-Cl-4-CF3)][Pro(4,4-F2)][Ac5c][NMeGly(cPent)]D-NMe2; lactam N-11)	–	1.9 nM	C (A compound having a KD ratio of 0.1 or more and less than 3 is denoted as C)	B (a compound having 3 or more and less than 10 is denoted as B)	–	–	–	–
CC[C@H](C)[C@@H]1NC(=O)[C@H](CC(C)C)N(C)C(=O)C[C@@H](C(=O)N(C)C)N(C)C(=O)[C@H](C2CCCC2)N(C)C(=O)C2(CCCC2)NC(=O)[C@@H]2CCCN2C(=O)[C@H](CCc2cc(F)c(C(F)(F)F)c(F)c2)NC(=O)CN(C)C(=O)[C@H](Cc2ccc(C(F)(F)F)cc2)N2CCCCC[C@@H](C2=O)N(C)C(=O)CN(CC)C1=O [PP0514]	–	11 nM	–	–	B (a compound having 3 or more and less than 10 is denoted as B)	B (a compound having 3 or more and less than 10 is denoted as B)	–	–
CC[C@H](C)[C@@H]1NC(=O)[C@H](CC(C)C)N(C)C(=O)C[C@@H](C(=O)N2CCOCC2)N(C)C(=O)[C@H](C2CCCC2)N(C)C(=O)C(C)(C)NC(=O)[C@@H]2CCCN2C(=O)[C@H](CCc2cc(F)c(C(F)(F)F)c(F)c2)NC(=O)CN(C)C(=O)[C@H](Cc2ccc(C(F)(F)F)cc2)N2CCCC[C@@H](C2=O)N(C)C(=O)CN(C)C1=O [PP0565]	–	0.16 nM	–	–	B (a compound having 3 or more and less than 10 is denoted as B)	C (A compound having a KD ratio of 0.1 or more and less than 3 is denoted as C)	–	–

Second part, led by results:

Kd ([3]; SPR, Single Cycle Kinetics)	Kd [3, 4]	SMILES	HRAS/KRAS (ratio of KD value for HRAS to KD value for KRAS) [1]	NRAS/KRAS (ratio of KD value for NRAS to KD value for KRAS) [2]	HRAS/KRAS (ratio of KD value with respect to HRAS to KD value with respect to KRAS) [1]	NRAS/KRAS (ratio of KD value with respect to NRAS to KD value with respect to KRAS) [2]	HRAS/KRAS (ratio of KD value with respect to GDP-bound HRAS wild-type protein to KD value with respect to KRAS) ([1]; SPR KD ratio HRAS/KRAS, class symbols)	NRAS/KRAS (ratio of KD value with respect to GDP-bound NRAS wild-type protein to KD value with respect to KRAS) ([2]; SPR KD ratio NRAS/KRAS, class symbols)
0.75 nM	–	CCO[C@@H]1C[C@H]2C(=O)NC3(CCCC3)C(=O)N(C)[C@@H](C3CCCC3)C(=O)N(C)[C@H](C(=O)N(C)C)CC(=O)N(C)[C@@H](CC)C(=O)N[C@@H]([C@@H](C)CC)C(=O)N(C)CC(=O)N(C)[C@H]3CC(C)=CCN(C3=O)[C@@H](Cc3ccc(C(F)(F)F)cc3)C(=O)N(C)CC(=O)N[C@@H](CCc3cc(F)c(C(F)(F)F)c(F)c3)C(=O)N2C1 [PP1036]	C (A compound having a KD ratio of 0.1 or more and less than 3 is denoted as C)	C (A compound having a KD ratio of 0.1 or more and less than 3 is denoted as C)	–	–	–	–
–	0.9 nM	CCC[C@H]1C(=O)N[C@@H]([C@@H](C)CC)C(=O)N(C)CC(=O)N(C)[C@H]2C/C=C\CCN(C2=O)[C@@H](Cc2ccc(C(F)(F)F)cc2)C(=O)N(C)CC(=O)N[C@@H](CCc2ccc(C(F)(F)F)c(OC)c2)C(=O)N2C[C@H](OCC)C[C@H]2C(=O)NC2(CC(C)(C)C2)C(=O)N(C)[C@@H](CC2CC2)C(=O)N(C)[C@H](C(=O)N(C)C)CC(=O)N1C [PP2809]	–	–	–	–	A (a compound having 10 or more and less than 20 is denoted as A)	A (a compound having 10 or more and less than 20 is denoted as A)
0.51 nM	–	CCO[C@@H]1C[C@H]2C(=O)NC3(CC(C)(C)C3)C(=O)N(C)[C@@H](C(CC)CC)C(=O)N(C)[C@H](C(=O)N(C)C)CC(=O)N(C)[C@@H](C(C)C)C(=O)N[C@@H]([C@@H](C)CC)C(=O)N(C)CC(=O)N(C)[C@H]3C/C=C\CCN(C3=O)[C@@H](Cc3ccc(C(F)(F)F)cc3)C(=O)N(C)CC(=O)N[C@@H](CCc3ccc(C(F)(F)F)c(OC)c3)C(=O)N2C1 [PP2165]	A (a compound having 10 or more and less than 20 is denoted as A)	A (a compound having 10 or more and less than 20 is denoted as A)	–	–	–	–
0.43 nM	–	CCO[C@@H]1C[C@H]2C(=O)NC3(CCC3)C(=O)N(C)[C@@H](C3CCCC3)C(=O)N(C)[C@H](C(=O)N(C)C)CC(=O)N(C)[C@@H](CC)C(=O)N[C@@H]([C@@H](C)CC)C(=O)N(C)CC(=O)N(C)[C@H]3CC(C)=CCN(C3=O)[C@@H](Cc3ccc(C(F)(F)F)cc3)C(=O)N(C)CC(=O)N[C@@H](CCc3cc(F)c(C(F)(F)F)c(F)c3)C(=O)N2C1 [PP1034]	C (A compound having a KD ratio of 0.1 or more and less than 3 is denoted as C)	C (A compound having a KD ratio of 0.1 or more and less than 3 is denoted as C)	–	–	–	–
–	0.015 nM	CCO[C@@H]1C[C@H]2C(=O)NC3(CCC3)C(=O)N(C)[C@@H](C3CCCC3)C(=O)N(C)[C@H](C(=O)N(C)C)CC(=O)N(C)[C@@H](CC3CCC3)C(=O)N[C@@H]([C@@H](C)CC)C(=O)N(C)CC(=O)N(C)[C@H]3CCCCN(C3=O)[C@@H](Cc3ccc(C(F)(F)F)cc3)C(=O)N(C)CC(=O)N[C@@H](CCc3cc(F)c(C(F)(F)F)c(F)c3)C(=O)N2C1 [PP0698]	–	–	C (A compound having a KD ratio of 0.1 or more and less than 3 is denoted as C)	C (A compound having a KD ratio of 0.1 or more and less than 3 is denoted as C)	–	–
–	0.035 nM	CCO[C@@H]1C[C@H]2C(=O)NC3(CCC3)C(=O)N(C)[C@@H](C3CCCC3)C(=O)N(C)[C@H](C(=O)N3CCOCC3)CC(=O)N(C)[C@@H](CC3CCCC3)C(=O)N[C@@H]([C@@H](C)CC)C(=O)N(C)CC(=O)N(C)[C@H]3CCCCN(C3=O)[C@@H](Cc3ccc(C(F)(F)F)cc3)C(=O)N(C)CC(=O)N[C@@H](CCc3cc(F)c(C(F)(F)F)c(F)c3)C(=O)N2C1 [PP0715]	–	–	B (a compound having 3 or more and less than 10 is denoted as B)	C (A compound having a KD ratio of 0.1 or more and less than 3 is denoted as C)	–	–
